Assay results as given in ChEMBL document CHEMBL1137879, “The development of new bicyclic pyrazole-based cytokine synthesis inhibitors” (Bioorg Med Chem Lett, 2004).

Experiments:
[1] = test system: THP-1; test: Concentration required to inhibit production of Tumor necrosis factor, alpha in LPS-stimulated human monocytic cells (THP-1); type: functional, cell-based
[2] = target: Mitogen-activated protein kinase 14 (Homo sapiens, UniProt Q16539); test: Inhibition of human Mitogen-activated protein kinase p38 alpha
Mitogen-activated protein kinase 14, sequence (Q16539 whole entry): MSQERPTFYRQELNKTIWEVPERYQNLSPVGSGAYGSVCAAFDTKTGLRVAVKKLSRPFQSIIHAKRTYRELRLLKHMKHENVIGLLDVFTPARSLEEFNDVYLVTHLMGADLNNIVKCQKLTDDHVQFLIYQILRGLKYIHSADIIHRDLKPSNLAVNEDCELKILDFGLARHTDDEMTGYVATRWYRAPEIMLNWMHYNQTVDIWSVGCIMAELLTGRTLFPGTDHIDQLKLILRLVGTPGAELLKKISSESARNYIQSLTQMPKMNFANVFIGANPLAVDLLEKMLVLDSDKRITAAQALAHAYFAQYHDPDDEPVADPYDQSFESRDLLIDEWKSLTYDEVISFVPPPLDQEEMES

## Fc1ccc(-c2c(-c3ccnc(Oc4ccccc4)n3)nn3c2OCC3)cc1
[1]
  IC50: 0.3 µM
[2]
  IC50: 2.2 µM

## COC[C@@H](C)Nc1nccc(-c2nn3c(c2-c2ccc(F)cc2)OCC3)n1
[1]
  IC50: 1.7 µM
[2]
  IC50: 0.28 µM

## CC[C@@H](C)Nc1nccc(-c2nn3c(c2-c2ccc(F)cc2)OCC3)n1
[1]
  IC50: 0.08 µM
[2]
  IC50: 0.36 µM

## Oc1[nH]nc(-c2ccncc2)c1-c1ccc(F)cc1
[1]
  IC50: 3.1 µM
[2]
  IC50: 0.32 µM

## Fc1ccc(-c2c(-c3ccncc3)nn3c2OCCC3)cc1
[1]
  IC50: 3.1 µM
[2]
  IC50: 0.46 µM

## C[C@@H](Nc1nccc(-c2nn3c(c2-c2ccc(F)cc2)OCC3)n1)c1ccccc1
[1]
  IC50: > 2 µM
[2]
  IC50: 11.2 µM

## Fc1ccc(-c2c(-c3ccnc(Oc4ccccc4)n3)nn3c2OCCC3)cc1
[1]
  IC50: > 10 µM
[2]
  IC50: 6.6 µM

## CCOCn1nnc(-c2ccncc2)c1-c1ccc(F)cc1
[2]
  IC50: 0.31 µM
